The target in one test is T1, AKII-HDHII (AK activity) (Escherichia coli, UniProt P00562).
T1 construct: made in house; host or cells: E. coli BL21(DE3), pBT430-derived expression vector; sonicated cell extract of clone 5 (pBT718)
Description: Inhibition of AK activity of clone 5 extract (metL, AKII-HDHII) by pathway end-products. Format: biochemical, E. coli. The settings on record: 30 mM end-product; extract from clone 5. The protocol:
(§1) Cultures were grown in TB medium containing ampicillin (100 mg/L) at 37° C. overnight. The cells were collected by centrifugation and resuspended in 1/25th the original culture volume in 50 mM NaCl; 50 mM Tris-Cl, pH 7.5; 1 mM EDTA, and frozen at -20° C., thawed at 37° C. and sonicated, in an ice-water bath, to lyse the cells. The lysate was centrifuged at 4° C. for 5 min at 12,000 rpm. The supernatant was removed and the pellet was resuspended in the above buffer.
(§2) Assay mix (for 12×1.0 mL or 48×0.25 mL assays):
(§3) Each 1.5 ml eppendorf assay tube contains: […]
(§4) Spin for 2 min in eppendorf centrifuge tube.
(§5) Two extracts also had high levels of AK enzyme activity. These two extracts were then tested for inhibition of AK or HDH activity by the pathway end-products, lys, thr and met.

The target of test [1] is T2, AKII-HDHII (HDH activity) (Escherichia coli, UniProt P00562).
T2 construct: made in house; host or cells: E. coli BL21(DE3), pBT430-derived expression vector; sonicated cell extract of clone 5 (pBT718)
T2 sequence (P00562 other isoform, or with tags, fused parts or gaps): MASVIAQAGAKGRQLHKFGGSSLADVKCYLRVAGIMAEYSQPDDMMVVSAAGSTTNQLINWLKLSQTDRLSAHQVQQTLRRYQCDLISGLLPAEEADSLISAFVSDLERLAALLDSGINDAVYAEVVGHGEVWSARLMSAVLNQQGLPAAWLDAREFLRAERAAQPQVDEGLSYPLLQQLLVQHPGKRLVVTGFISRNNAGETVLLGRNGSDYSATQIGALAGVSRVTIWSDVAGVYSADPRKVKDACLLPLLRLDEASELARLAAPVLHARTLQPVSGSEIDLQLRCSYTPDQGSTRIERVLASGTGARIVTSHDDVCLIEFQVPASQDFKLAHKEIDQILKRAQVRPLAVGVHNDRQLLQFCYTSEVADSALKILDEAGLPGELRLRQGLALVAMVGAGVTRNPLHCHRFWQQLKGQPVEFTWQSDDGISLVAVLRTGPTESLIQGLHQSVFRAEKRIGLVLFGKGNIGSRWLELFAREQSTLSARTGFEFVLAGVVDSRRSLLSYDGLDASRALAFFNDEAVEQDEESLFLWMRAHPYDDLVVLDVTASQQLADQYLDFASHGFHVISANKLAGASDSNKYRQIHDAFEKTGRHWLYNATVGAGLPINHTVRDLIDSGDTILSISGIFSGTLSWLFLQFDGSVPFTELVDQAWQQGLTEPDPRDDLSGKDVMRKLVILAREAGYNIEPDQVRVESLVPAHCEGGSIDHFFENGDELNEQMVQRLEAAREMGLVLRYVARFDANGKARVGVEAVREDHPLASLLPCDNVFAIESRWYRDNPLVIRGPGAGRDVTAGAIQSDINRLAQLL
Description: Inhibition of HDH activity of clone 5 extract (metL, AKII-HDHII) by pathway end-products. The class given is biochemical, E. coli. As to conditions: 30 mM end-product; extract from clone 5. The protocol:
as §1
The supernatant fractions were assayed for HDH enzyme activities to identify clones expressing functional proteins. HDH activity was assayed as shown below: […]
Make Mixture of above reagents with amounts multiplied by number of assays. Use 0.9 mls of mix for 1 ml assay; 180 μl of mix for 0.2 ml assay in microtiter dish
to 1/2 the assay mix; remaining 1/2 lacks ASA to serve as blank
Add enzyme extract last to start reaction. Incubate at ~30° C.; monitor NADPH oxidation at […]. 1 unit oxidizes 1 μmol NADPH/min at 30° C. in the 1 ml reaction.
as §5

The test system of test [2] is E. coli strain Gif106M1 transformed with pBT436. Description: Growth inhibition of Gif106M1 transformed with pBT436 on supplemented M9 media. The settings on record: M9 media with arginine, isoleucine, ampicillin; reversed by threonine plus methionine. The class given is cell-based. The text has this: To establish that the cloned lysC gene was functional, pBT436 was transformed into E. coli strain Gif106M1 (E. coli Genetic Stock Center strain CGSC-5074) which has mutations in each of the three E. coli AK genes [Theze et al. (1974) J. Bacteriol. 117:133-143]. This strain lacks all AK activity and therefore requires diaminopimelate (a precursor to lysine which is also essential for cell wall biosynthesis), threonine and methionine.
Addition of lysine (or diaminopimelate which is readily converted to lysine in vivo) at a concentration of approximately 0.2 mM to the growth medium inhibits the growth of Gif106M1 transformed with pBT436.M9 media [see Sambrook et al. (1989) Molecular Cloning: a Laboratory Manual, Cold Spring Harbor Laboratory Press] supplemented with the arginine and isoleucine, required for Gif106M1 growth, and ampicillin, to maintain selection for the pBT436 plasmid, was used. This inhibition is reversed by addition of threonine plus methionine to the growth media. […] This property of pBT436-transformed Gif106M1 was used to select for mutations in lysC that encoded lysine-insensitive AKIII.

The subject of test [3] is lysine-insensitive AKIII (mutant lysC genes M2, M3, M4). Description: Inhibition by lysine of AKIII encoded by mutant lysC genes (lysine-resistant clones). The settings on record: 15 mM lysine; three of six lysine-resistant plasmids. The class given is biochemical, E. coli.
A further test has as its target T3, wild type AKIII (Escherichia coli, UniProt P08660).
T3 construct: made in house; host or cells: E. coli Gif106M1 transformed with pBT436 (the plasmid of the cloned wild type lysC gene)
Description: Inhibition of wild type AKIII aspartokinase activity by lysine. Format: biochemical, E. coli. How it is done: Single colonies of Gif106M1 transformed with pBT436 were picked and resuspended in 200 μL of a mixture of 100 μL 1% lysine plus 100 μL of M9 media. The entire cell suspension containing 10^7 -10^8 cells was spread on a petri dish containing M9 media supplemented with the arginine, isoleucine, and ampicillin. Sixteen petri dishes were thus prepared. From 1 to 20 colonies appeared on 11 of the 16 petri dishes. One or two (if available) colonies were picked and retested for lysine resistance and from this nine lysine-resistant clones were obtained. Plasmid DNA was prepared from eight of these and re-transformed into Gif106M1 to determine whether the lysine resistance determinant was plasmid-borne. Six of the eight plasmid DNAs yielded lysine-resistant colonies. Three of these six carried lysC genes encoding AKIII that was uninhibited by 15 mM lysine, whereas wild type AKIII is 50% inhibited by 0.3-0.4 mM lysine and >90% inhibited by 1 mM lysine (see Example 2 for details).
as §2, §3, §4

Here are results for four compounds from patent US5912414A, “Nucleic acid fragments, chimeric genes and methods for increasing the methionine content of the seeds of plants” (priority 1996, dated 1999).

Where only a bound is given, the exact number is not on record here.

T1 sequence (P00562 other isoform, or with tags, fused parts or gaps): as above
T3 sequence (P08660 2-449): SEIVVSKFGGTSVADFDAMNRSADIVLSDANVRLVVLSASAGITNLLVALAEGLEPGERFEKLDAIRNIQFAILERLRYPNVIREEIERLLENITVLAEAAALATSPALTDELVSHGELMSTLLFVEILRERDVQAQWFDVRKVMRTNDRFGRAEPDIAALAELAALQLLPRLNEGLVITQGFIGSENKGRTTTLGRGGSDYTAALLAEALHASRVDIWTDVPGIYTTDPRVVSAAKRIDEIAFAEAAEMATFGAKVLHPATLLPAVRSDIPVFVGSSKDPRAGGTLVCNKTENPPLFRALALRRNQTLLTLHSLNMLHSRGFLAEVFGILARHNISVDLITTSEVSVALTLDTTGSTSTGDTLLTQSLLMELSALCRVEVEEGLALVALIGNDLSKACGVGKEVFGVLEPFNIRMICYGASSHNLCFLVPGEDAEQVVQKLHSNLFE

Turning to `C[C@@H](O)[C@H](N)C(=O)O` [thr, threonine], the “inhibition of AK activity” value on AKII-HDHII (AK activity) was “Neither the AK nor the HDH activity of the extract from clone 5 was inhibited”. Also, in test [1], the “inhibition of HDH activity” value was “Neither the AK nor the HDH activity of the extract from clone 5 was inhibited”.

Take `CSCC[C@H](N)C(=O)O` [met, methionine]: at AKII-HDHII (AK activity), the “inhibition of AK activity” value was “Neither the AK nor the HDH activity of the extract from clone 5 was inhibited”. Also, in test [1], the “inhibition of HDH activity” value was “Neither the AK nor the HDH activity of the extract from clone 5 was inhibited”.

One may read the inhibition as how much of the control response was suppressed. As to `NCCCC[C@H](N)C(=O)O` [lysine], in test [2], the “concentration in the growth medium that inhibits growth” value was “approximately 0.2 mM”. Besides, the “inhibition of AKIII encoded by mutant lysC genes” value in test [3] was “uninhibited”. The “inhibition of AK activity” value against AKII-HDHII (AK activity) is given as “Neither the AK nor the HDH activity of the extract from clone 5 was inhibited”. The “inhibition of HDH activity” value in test [1] was “Neither the AK nor the HDH activity of the extract from clone 5 was inhibited”. Moreover, at wild type AKIII (read-out: inhibition of wild type AKIII), the inhibition at 1000 µM was above 90%. The IC50 on wild type AKIII (wild type AKIII from cloned lysC (pBT436), read-out: lysine concentration giving 50% inhibition of wild type AKIII) was in the range of 300 to 400 µM.

Take `NC(CCCC(N)C(=O)O)C(=O)O` (centres unmarked) [diaminopimelate]: the “concentration in the growth medium that inhibits growth” value in test [2] is listed as “approximately 0.2 mM”.
